# Results taken from the supplement of paper PMC10307832.
# How the values were obtained:
# Assay in all cases: relative viability (nuclei count vs DMSO), 5 days (fraction); higher = more cells survive
# [1] = tested on: NCI-H522
# Summary of the method: (§1)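 After 5 days of treatment, lung cancer cells in 1536-well plates were fixed and stained in a single step (final 0.05% Triton X-100, 1% formaldehyde, 1 ug/ml Hoechst) and their nuclei counted on 4× images. Treatment had been applied by pin tool the day after seeding as one drug alone or as a fixed anchor-drug dose with five library-drug doses (not always all listed) in √10 steps. Relative viability is the nuclei count of treated wells divided by that of vehicle wells, and values are medians of duplicate plates.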
# [2] = tested on: NCI-H1355
# Summary of the method: as §1
# [3] = tested on: LK-2
# Summary of the method: as §1
# [4] = tested on: NCI-H1648
# Summary of the method: as §1
# [5] = tested on: LCLC-103H
# Summary of the method: as §1
# [6] = tested on: NCI-H1703
# Summary of the method: as §1
smiles,measurement,setting,value
CCN(CC)CCCCNc1ncc2cc(-c3cc(OC)cc(OC)c3)c(NC(=O)NC(C)(C)C)nc2n1 + NC(=O)Nc1cc(-c2cccc(F)c2)sc1C(=O)N[C@H]1CCCNC1 [AZD7762] (partner 0.2 µM),relative viability,[1]; first compound 0.01 µM,0.772
same,relative viability,[1]; first compound 0.03162 µM,0.831
same,relative viability,[1]; first compound 0.1 µM,0.846
same,relative viability,[1]; first compound 0.3162 µM,0.781
same,relative viability,[1]; first compound 1 µM,0.88
same,relative viability,[2]; first compound 0.01 µM,0.809
same,relative viability,[2]; first compound 0.03162 µM,0.776
same,relative viability,[2]; first compound 0.1 µM,0.766
same,relative viability,[2]; first compound 0.3162 µM,0.801
same,relative viability,[2]; first compound 1 µM,0.515
same,relative viability,[3]; first compound 0.01 µM,0.471
same,relative viability,[3]; first compound 0.03162 µM,0.394
same,relative viability,[3]; first compound 0.1 µM,0.374
same,relative viability,[3]; first compound 0.3162 µM,0.276
same,relative viability,[3]; first compound 1 µM,0.197
same,relative viability,[4]; first compound 0.01 µM,0.69
same,relative viability,[4]; first compound 0.03162 µM,0.688
same,relative viability,[4]; first compound 0.1 µM,0.757
same,relative viability,[4]; first compound 0.3162 µM,0.583
same,relative viability,[4]; first compound 1 µM,0.445
same,relative viability,[5]; first compound 0.01 µM,0.926
same,relative viability,[5]; first compound 0.03162 µM,0.843
same,relative viability,[5]; first compound 0.1 µM,0.824
same,relative viability,[5]; first compound 0.3162 µM,0.83
same,relative viability,[5]; first compound 1 µM,0.705
same,relative viability,[6]; first compound 0.03162 µM,0.0943
same,relative viability,[6]; first compound 0.1 µM,0.12
same,relative viability,[6]; first compound 0.3162 µM,0.143
same,relative viability,[6]; first compound 1 µM,0.112
O=c1cc(N2CCOCC2)oc2c(-c3cccc4c3sc3ccccc34)cccc12 + NC(=O)Nc1cc(-c2cccc(F)c2)sc1C(=O)N[C@H]1CCCNC1 [AZD7762] (partner 0.2 µM),relative viability,[1]; first compound 0.01 µM,0.737
same,relative viability,[1]; first compound 0.03162 µM,0.894
same,relative viability,[1]; first compound 0.1 µM,0.504
same,relative viability,[1]; first compound 0.3162 µM,0.967
same,relative viability,[1]; first compound 1 µM,0.775
same,relative viability,[2]; first compound 0.01 µM,0.726
same,relative viability,[2]; first compound 0.03162 µM,0.676
same,relative viability,[2]; first compound 0.1 µM,0.255
same,relative viability,[2]; first compound 0.3162 µM,0.903
same,relative viability,[2]; first compound 1 µM,0.72
same,relative viability,[3]; first compound 0.01 µM,0.468
same,relative viability,[3]; first compound 0.03162 µM,0.369
same,relative viability,[3]; first compound 0.1 µM,0.262
same,relative viability,[3]; first compound 0.3162 µM,0.369
same,relative viability,[3]; first compound 1 µM,0.354
same,relative viability,[4]; first compound 0.03162 µM,0.889
same,relative viability,[4]; first compound 0.1 µM,0.714
same,relative viability,[4]; first compound 0.3162 µM,0.609
same,relative viability,[4]; first compound 1 µM,0.746
same,relative viability,[5]; first compound 0.01 µM,0.799
same,relative viability,[5]; first compound 0.03162 µM,0.777
same,relative viability,[5]; first compound 0.1 µM,0.804
same,relative viability,[5]; first compound 0.3162 µM,0.815
same,relative viability,[5]; first compound 1 µM,0.688
same,relative viability,[6]; first compound 0.01 µM,0.143
same,relative viability,[6]; first compound 0.03162 µM,0.137
same,relative viability,[6]; first compound 0.3162 µM,0.146
same,relative viability,[6]; first compound 1 µM,0.131
COc1nc(C)cnc1NS(=O)(=O)c1cccnc1-c1ccc(-c2nnco2)cc1 [Zibotentan] + NC(=O)Nc1cc(-c2cccc(F)c2)sc1C(=O)N[C@H]1CCCNC1 [AZD7762] (partner 0.2 µM),relative viability,[1]; first compound 0.08 µM,0.835
same,relative viability,[1]; first compound 0.253 µM,0.862
same,relative viability,[1]; first compound 0.8 µM,0.773
same,relative viability,[1]; first compound 2.53 µM,0.856
same,relative viability,[2]; first compound 0.08 µM,0.81
same,relative viability,[2]; first compound 0.253 µM,0.858
same,relative viability,[2]; first compound 0.8 µM,0.432
same,relative viability,[2]; first compound 2.53 µM,0.774
same,relative viability,[3]; first compound 0.08 µM,0.479
same,relative viability,[3]; first compound 0.253 µM,0.327
same,relative viability,[3]; first compound 0.8 µM,0.441
same,relative viability,[3]; first compound 2.53 µM,0.282
same,relative viability,[4]; first compound 0.08 µM,0.637
same,relative viability,[4]; first compound 0.253 µM,0.596
same,relative viability,[4]; first compound 0.8 µM,0.596
same,relative viability,[4]; first compound 2.53 µM,0.63
same,relative viability,[5]; first compound 0.08 µM,0.77
same,relative viability,[5]; first compound 0.253 µM,0.786
same,relative viability,[5]; first compound 0.8 µM,0.778
same,relative viability,[5]; first compound 2.53 µM,0.752
same,relative viability,[6]; first compound 0.08 µM,0.139
same,relative viability,[6]; first compound 0.253 µM,0.114
same,relative viability,[6]; first compound 0.8 µM,0.108
same,relative viability,[6]; first compound 2.53 µM,0.121
